From PMC10762035, “Molecular basis of human trace amine-associated receptor 1 activation” (Nature Communications, 2024)
Changes are numbered by the printed parent chain. “And” between values parts separate entries of the source, which are not always exact repeats. Identical values can stand only once. Like-named read-outs stand apart in the source and are kept apart here.

Tests used:
Type in all cases: cell-based
hTA1 V184P = target: T1, hTA1 V184P (Homo sapiens, UniProt Q96RJ0, V184P); assay: GloSensor cAMP accumulation assay, V184P mutant; settings: for cAMP accumulation response, single replicate values (source data, Supplementary Figure 5): hTA1 V184P (N=2), log[Compound]
T1 construct: expressed in transfected cells; host or cells: HEK293T
T1 sequence (Q96RJ0 1-339 V184P): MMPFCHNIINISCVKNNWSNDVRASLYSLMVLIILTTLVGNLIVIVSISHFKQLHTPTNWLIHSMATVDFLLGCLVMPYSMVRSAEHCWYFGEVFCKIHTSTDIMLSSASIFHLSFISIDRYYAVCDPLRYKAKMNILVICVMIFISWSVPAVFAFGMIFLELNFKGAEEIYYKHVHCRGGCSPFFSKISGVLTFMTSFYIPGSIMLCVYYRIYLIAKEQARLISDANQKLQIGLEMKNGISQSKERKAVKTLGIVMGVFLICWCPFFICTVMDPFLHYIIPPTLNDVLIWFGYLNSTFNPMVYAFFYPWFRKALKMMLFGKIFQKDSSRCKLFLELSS

hTA1 W264F = target: T2, hTA1 W264F (Homo sapiens, UniProt Q96RJ0, W264F); assay: GloSensor cAMP accumulation assay, W264F mutant;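 also: cells transiently transfected with receptor plus GloSensor, luminescence read 30 min after agonist addition at room temperature, concentration-response curves fitted by log(agonist) vs response regression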
T2 construct: expressed in transfected cells; host or cells: HEK293T
T2 sequence (Q96RJ0 1-339 W264F): T1 sequence (Q96RJ0 1-339 V184P) with P184V, W264F

hTA1 T271N = target: T3, hTA1 T271N (Homo sapiens, UniProt Q96RJ0, T271N); assay: GloSensor cAMP accumulation assay, T271N mutant
T3 construct: expressed in transfected cells; host or cells: HEK293T
T3 sequence (Q96RJ0 1-339 T271N): T1 sequence (Q96RJ0 1-339 V184P) with P184V, T271N

hTA1 C88/178S = target: T4, hTA1 C88/178S (Homo sapiens, UniProt Q96RJ0, C178S/C88S); assay: GloSensor cAMP accumulation assay, C88S/C178S double mutant; settings: for Normalized Luminescence Counts (N=2): log[Compound], single replicate values
T4 construct: expressed in transfected cells; host or cells: HEK293T
T4 sequence (Q96RJ0 1-339 C88S/C178S): T1 sequence (Q96RJ0 1-339 V184P) with C88S, C178S, P184V

[1] = W246F mutant (so in the source) minus WT average
[2] = C88S, C178S, each row is one independent experiment, 3 replicates

## NCCc1ccc(O)cc1 [TYR, tyramine]
hTA1 V184P; V184P
  reduction in potency vs wild type: 4 fold
hTA1 V184P; V184P, n=2, read-out: EC50
  EC50: 1.49 µM
hTA1 V184P; V184P, n=2, read-out: Span ± SEM (Emax normalized to β-PEA)
  Emax: 105 ± 5.68%
hTA1 V184P; M = -5
  cAMP accumulation response, single replicate values (source data, Supplementary Figure 5): 66.7204 and 110.557 and 88.2354 and 80.832 and 102.751 and 95.962
hTA1 V184P; M = -5.522
  cAMP accumulation response, single replicate values (source data, Supplementary Figure 5): 68.2965 and 82.5176 and 84.3869 and 52.6087 and 59.3978 and 71.1332
hTA1 V184P; M = -6
  cAMP accumulation response, single replicate values (source data, Supplementary Figure 5): 47.9177 and 50.0802 and 42.1633 and 41.1642 and 31.9504 and 31.2715
hTA1 V184P; M = -6.522
  cAMP accumulation response, single replicate values (source data, Supplementary Figure 5): 19.512 and 25.4864 and 24.1669 and 21.0878 and 21.7667 and 21.1848
hTA1 V184P; M = -7
  cAMP accumulation response, single replicate values (source data, Supplementary Figure 5): 8.113 and 10.3856 and 10.972 and 5.085 and 4.018 and 3.436
hTA1 V184P; M = -7.522
  cAMP accumulation response, single replicate values (source data, Supplementary Figure 5): 1.736 and 1.149 and 1.113 and 1.69 (2×) and 1.5934
hTA1 V184P; M = -8
  cAMP accumulation response, single replicate values (source data, Supplementary Figure 5): 1.479 and 2.432 and 2.102 and -0.4433 and -0.3463 and 0.1386
hTA1 V184P; M = -8.522
  cAMP accumulation response, single replicate values (source data, Supplementary Figure 5): 0.0496 and 0.8926 and 2.065 and -0.3463 and 0.4296 and -0.05538
hTA1 V184P; M = -9
  cAMP accumulation response, single replicate values (source data, Supplementary Figure 5): -0.2803 and 1.809 and 0.9293 and -0.4433 and -0.2494 (2×)
hTA1 V184P; M = -9.522
  cAMP accumulation response, single replicate values (source data, Supplementary Figure 5): -0.3536 and -0.06036 and -0.6835 and -0.05538 (2×) and 0.04161
hTA1 V184P; M = -10
  cAMP accumulation response, single replicate values (source data, Supplementary Figure 5): 0.4894 and -0.09701 and -0.5368 and 0.04161 and -0.3463 and -0.05538
hTA1 V184P; M = -10.522
  cAMP accumulation response, single replicate values (source data, Supplementary Figure 5): -0.4269 and 0.4528 and -0.94 and 0.04161 and 0.5265 and -0.05538
hTA1 V184P; M = -11
  cAMP accumulation response, single replicate values (source data, Supplementary Figure 5): 0.1229 and 0.4528 and 0.0496 and -0.2494 and -0.4433 and 0.1386
hTA1 V184P; M = -11.522
  cAMP accumulation response, single replicate values (source data, Supplementary Figure 5): -0.2436 and 1.039 and -0.2803 and 0.04161 and 0.5265 and 0.3326
hTA1 V184P; M = -12
  cAMP accumulation response, single replicate values (source data, Supplementary Figure 5): -0.1337 and -0.5368 and -0.7568 and 0.1386 and 0.5265 (2×)
hTA1 V184P; M = -12.522
  cAMP accumulation response, single replicate values (source data, Supplementary Figure 5): 1.113 and 0.5994 and -0.5368 and 1.399 and 1.302 and 1.69
hTA1 V184P; hTA1 V184P mutant, Figure 3B source data, each grid row a separate experiment, 3 replicates, read-out: pEC50 values (Mean) (converted)
  EC50: 2.18 µM and 1.02 µM
hTA1 V184P; hTA1 V184P mutant, β-PEA set to 100, each grid row a separate experiment, 3 replicates
  Emax values, Mean: 99.5188
hTA1 V184P; hTA1 V184P mutant, β-PEA set to 100, each grid row a separate experiment, 3 replicates, read-out: Emax values (Mean)
  Emax: 111%
hTA1 W264F; [1]
  ΔEmax values (each mutant value - WT average): 2.816
  ΔpEC50 values (each mutant value - WT average): -1.54 and -1.2519
hTA1 W264F; W246F mutant (so in the source), each line an independent experiment, 3 replicates, read-out: pEC50 values (Mean) (converted)
  EC50: 14.4 µM and 7.41 µM
hTA1 W264F; W246F mutant (so in the source), β-PEA = 100, each line an independent experiment, 3 replicates
  Emax values, Mean: 99.2183
hTA1 W264F; W246F mutant (so in the source), β-PEA = 100, each line an independent experiment, 3 replicates, read-out: Emax values (Mean)
  Emax: 102%
hTA1 W264F; W264F, n=2, read-out: EC50
  EC50: 10.3 µM
hTA1 W264F; W264F, n=2, read-out: Span ± SEM (Emax normalized to β-PEA)
  Emax: 101 ± 1.29%
hTA1 T271N; T271N mutant, Figure 5B, each row one independent experiment (3 replicates), read-out: pEC50 values, Mean (converted)
  EC50: 0.553 µM and 1.35 µM
hTA1 T271N; T271N mutant, Figure 5B, β-PEA = 100, each row one independent experiment (3 replicates)
  Emax values, Mean: 98.6225
hTA1 T271N; T271N mutant, Figure 5B, β-PEA = 100, each row one independent experiment (3 replicates), read-out: Emax values, Mean
  Emax: 106%
hTA1 T271N; T271N, n=2, read-out: EC50
  EC50: 0.863 µM
hTA1 T271N; T271N, n=2, read-out: Span ± SEM (Emax normalized to β-PEA)
  Emax: 103 ± 3.93%
hTA1 C88/178S; C88/178S, n=2, read-out: EC50
  EC50: 0.516 µM
hTA1 C88/178S; [2]
  ΔEmax values (each mutant value - WT average), Mean: 5.171 and -4.429
  ΔpEC50 values (each mutant value - WT average), Mean: -0.1652 and -0.02439
hTA1 C88/178S; C88S, C178S, each row is one independent experiment, 3 replicates, read-out: pEC50 values, Mean (converted)
  EC50: 0.607 µM and 0.439 µM
hTA1 C88/178S; C88S, C178S, M = -5
  Normalized Luminescence Counts (N=2): 80.5108 and 118.73 and 96.3411 and 73.7167 and 119.633 and 101.508
hTA1 C88/178S; C88S, C178S, M = -5.522
  Normalized Luminescence Counts (N=2): 83.5638 and 94.9277 and 84.0161 and 70.847 and 65.5606 and 81.5707
hTA1 C88/178S; C88S, C178S, M = -6
  Normalized Luminescence Counts (N=2): 61.2318 and 70.3907 and 58.4615 and 74.6229 and 67.8262 and 50.6077
hTA1 C88/178S; C88S, C178S, M = -6.522
  Normalized Luminescence Counts (N=2): 35.2248 and 33.0764 and 35.0552 and 41.5453 and 51.665 and 30.8216
hTA1 C88/178S; C88S, C178S, M = -7
  Normalized Luminescence Counts (N=2): 17.4722 and 16.0588 and 18.7726 and 21.6082 and 20.853 and 15.4156
hTA1 C88/178S; C88S, C178S, M = -7.522
  Normalized Luminescence Counts (N=2): 4.582 and 7.069 and 6.674 and 4.541 and 4.692 and 3.332
hTA1 C88/178S; C88S, C178S, M = -8
  Normalized Luminescence Counts (N=2): 0.3416 and 1.077 and 0.3981 and 2.124 and 2.577 and 4.239
hTA1 C88/178S; C88S, C178S, M = -8.522
  Normalized Luminescence Counts (N=2): 0.2285 and 0.4547 and 1.1331 and 0.9158 and 0.6137 and 2.577
hTA1 C88/178S; C88S, C178S, M = -9
  Normalized Luminescence Counts (N=2): -0.6195 and -0.1107 and 0.3416 and -1.501 and -1.35 and 3.6345
hTA1 C88/178S; C88S, C178S, M = -9.522
  Normalized Luminescence Counts (N=2): -0.5065 and -0.563 and -0.05417 and -0.8967 (2×) and -1.652
hTA1 C88/178S; C88S, C178S, M = -10
  Normalized Luminescence Counts (N=2): -0.1107 and -0.9588 (2×) and -1.35 and -0.4436 and -0.1415
hTA1 C88/178S; C88S, C178S, M = -10.522
  Normalized Luminescence Counts (N=2): -0.6195 and -0.1672 and 0.0589 and -1.954 and -1.048 and 1.067
hTA1 C88/178S; C88S, C178S, M = -11
  Normalized Luminescence Counts (N=2): -0.05417 and 0.5677 and 0.3981 and -1.652 and -0.8967 and 0.7648
hTA1 C88/178S; C88S, C178S, M = -11.522
  Normalized Luminescence Counts (N=2): 0.7373 and 0.9635 and 0.285 and -0.8967 (2×) and 0.1606
hTA1 C88/178S; C88S, C178S, M = -12
  Normalized Luminescence Counts (N=2): -0.563 and 1.02 and 0.7939 and -0.1415 and -1.048 and 0.7648
hTA1 C88/178S; C88S, C178S, M = -12.522
  Normalized Luminescence Counts (N=2): 0.2285 and 0.8504 and 0.3981 and -0.8967 and -0.4436 and -1.199
hTA1 C88/178S; C88S, C178S, normalized (β-PEA = 100), each row is one independent experiment, 3 replicates
  Emax values, Mean: 104.155 and 94.5547
hTA1 C88/178S; read-out: Span ± SEM (Emax normalized to β-PEA)
  Emax: 99.3 ± 4.8%
